Experimental data: patent US7160992B2, “Amino-modified polysaccharides and methods of generating and using same” (Yeda Research and Development Co., Ltd., priority 2003, dated 2007)
Values joined by “and” are separate entries in the source; they are usually repeats but may differ in a detail not shown here. Equal entries are not always repeated.

Columns and labels:
[1] = biological target: T1, CXCR4 (Homo sapiens, UniProt P61073); experiment: Inhibition of anti-CXCR4 mAb 12G5 binding to cells, flow cytometry; type: cell-based; details: for inhibition of 12G5 mAb binding to CXCR4 (in words): 20 μM aminoglycoside antibiotic; for reduction of 12G5 mAb binding to the cells: 10 μM AAC, PM1 cells, 30 min at 4° C.; for inhibition of mAb 12G5 or SDF-1α binding to CXCR4, % of the NeoR6 activity: in comparison to NeoR6
T1 construct: endogenous in cells; host or cells: PM1 cells and PBMC
Description: FIGS. 11a–d are graphs depicting the binding of AACs to CXCR4 in the presence of anti CXCR4 antibody (12G5). PM1 cells were incubated with PE-conjugated isotype control mAb, PE-anti CXCR4 conjugated mAb (12G5) alone, or in the presence of the indicated AACs for 30 min at 4° C. The cells were then washed twice with PBS and analyzed by flow cytometry. The MFI values are shown in parenthesis.
Interaction of AACs with CXCR4 was determined by flow cytometry (FACScan, Becton Dickinson) as described recently (Litovchick et al., 2001, supra). Briefly, 0.5×10^6 cells were washed in ice-cold PBS containing 0.1% sodium azide (wash buffer) and incubated at 4° C. with anti-CXCR4 mAb, 12G5 (PharMingen, San Diego, Calif.) conjugated to phycoerithrine (PE), in the absence or presence of different concentrations of the AACs. After 30 min of incubation, the cells were washed with ice-cold wash buffer and fixed in PBS containing 1% paraformaldehyde. Non-specific fluorescence was assessed by using isotype-matched control. For each sample 10,000 events were acquired. Data were analyzed and processed using CellQuest™ software (Becton Dickinson).

[2] = test system: HIV-1 isolates; experiment: Inhibition of HIV-1 infection (cMAGI reporter cells, MT2 syncytium formation); type: cell-based; details: up to 100 μM
Description: Aliquots of cell-free culture supernatants were used as viral inoculum. […] Cytotoxicity determinations were carried out in MT2 and H9 cells by trypan blue exclusion assay.
Viral inhibition was determined by incubating cMAGI HIV-1 reporter cells with 0.2–0.5 multiplicity of infection of HIV-1IIIB for 4 days at 37° C. in the presence or absence of various concentration of AACs, prior to counting the number of HIV-1 infected cells (stained blue). The cytopathic effects of the viral infection of MT2 cells were also analyzed by microscopic assessment of syncytium formation. These latter data were obtained by analysis of duplicate samples by two independent observers.

[3] = biological target: RRE IIB; details: fluorescein-Rev34-50 as fluorescent tracer; read-out: KD of aminoglycoside binding to RRE IIB; cited from earlier work
[4] = test system: RRE IIB; experiment: Fluorescence anisotropy of aminoglycoside binding to RRE IIB, fluorescein-Rev34-50 tracer (literature); set-up: species or system HIV-1
[5] = test system: MT-2 cells; experiment: Cellular uptake competition of AACs with NeoR6-FITC, flow cytometry; type: cell-based; details: for inhibition of NeoR6-FITC uptake, less affinity than NeoR6: 100 fold excess of non-labeled AAC over 0.5 μM NeoR6-FITC
Description: Following 15 minutes of incubation at room temperature, the cells were washed twice with ice-cold PBS and fixed in PBS containing 1% paraformaldehyde. Fluorescence was analyzed using flow cytometry.
After 5 or 15 min of incubation at room temperature, the cells were washed twice with ice-cold PBS and fixed in PBS containing 1% paraformaldehyde. The fluorescence was then analyzed by flow cytometry (FACScan, Becton Dickinson Imunocytometry Systems, San Jose, Calif., USA). For each sample 10,000 events were acquired. Data were analyzed and processed.

[6] = biological target: RRE IIB RNA; experiment: Fluorescence anisotropy: RhdRev binding and AAC competition for RRE IIB RNA; set-up: species or system HIV-1; details: for Kd: competition of AACs with RhdRev (10 nM) for RRE IIB RNA (20 nM) binding, 85 mM NaCl; for IC50: competition of AACs with RhdRev for RRE IIB RNA binding
[7] = biological target: TAR RNA; experiment: Fluorescence anisotropy: RhdRev binding and AAC competition for TAR RNA; set-up: species or system HIV-1; details: for Kd: competition of AACs with RhdRev (10 nM) for TAR RNA (20 nM) binding, 85 mM NaCl; for IC50: competition of AACs with RhdRev for TAR RNA binding
[8] = test system: U38, PM1, H9 cells and PBMC; experiment: Cellular uptake of AAC-FITC fluorescent probes, fluorescence microscopy; type: cell-based; details: 0.5 μM, 10 minutes of incubation
Description: Images were obtained using a Zeiss Axiophot microscope.
Cellular uptake using AAC fluorescent probes—U38, PM1, H9 cells and PBMC(10^5) were incubated for 20 minutes at room temperature in 100 μl RPMI 1640 medium (Gibco-BRL, Life-Technologies, UK) including AAC-FITC derivatives as indicated at a final concentration of 0.5 μM. Cells were washed twice, resuspended in 100 μl medium and analyzed with a Zeiss Axiophot fluorescent microscope.

[9] = test system: PM1 cells; experiment: Inhibition of FITC-labeled AAC uptake by SDF-1α, flow cytometry; type: cell-based; details: for MFI of FITC-AAC uptake: background MFI of 10
Description: Following 20 minutes at room temperature the cells were washed twice with PBS and analyzed by flow cytometry.
Following 30 minutes of incubation, cells were washed with ice-cold wash buffer and analyzed by flow cytometry as described above.

[10] = test system: cMAGI cells; experiment: Competition between FITC-labelled AACs and RANTES; type: cell-based; details: 2.5 mM RANTES
Description: Competition between FITC labelled AACs (1 mM) and RANTES (2.5 mM, Pepro Tech Inc., New Jersey, USA) was effected in 2×10^5 cMAGI cells. Following 30 min of incubation, cells were washed with ice-cold wash buffer and analysed by flow cytometry as described above.

[11] = test system: HIV-1IIIB wild type; experiment: Inhibition of HIV-1IIIB wild type in MT2 or cMAGI cells; type: cell-based; details: HIV-1IIIB wt; mean and standard deviation of three separate experiments; read-out: EC50, Wild-type
Text: The cMAGI assay is based on the ability of HIV-1 TAT to transactivate the expression of an integrated β-galactosidase reporter gene driven by the HIV-LTR [Chackerian, B. et al., 1997. J Virol. 71: 3932–3939; Collins, K. B. et al., 2000. Nat. Med. 6: 475–479]. The β-galactosidase reporter has been modified to remain localized in the nucleus where it can be detected with the X-gal substrate as an intense nuclear stain within a few days of infection. The X-gal substrate used was 5-bromo-4-chloro-3-indoyl-beta-D-galactopyranoside. HIV1IIIB was propagated by subculture in MT2 as described previously [Litovchick (2001) Supra]. Aliquots of cell-free culture supernatants were used as viral inoculum. […] The cytopathic effects of the viral infection of MT2 cells were analyzed by microscopic assessment of syncytium formation. These latter data were obtained by analysis of duplicate samples by two independent observers. HIV-1 infection of cMAGI cells was determined by counting the number of HIV-1 infected cells (stained blue).

T1 sequence (P61073 whole entry): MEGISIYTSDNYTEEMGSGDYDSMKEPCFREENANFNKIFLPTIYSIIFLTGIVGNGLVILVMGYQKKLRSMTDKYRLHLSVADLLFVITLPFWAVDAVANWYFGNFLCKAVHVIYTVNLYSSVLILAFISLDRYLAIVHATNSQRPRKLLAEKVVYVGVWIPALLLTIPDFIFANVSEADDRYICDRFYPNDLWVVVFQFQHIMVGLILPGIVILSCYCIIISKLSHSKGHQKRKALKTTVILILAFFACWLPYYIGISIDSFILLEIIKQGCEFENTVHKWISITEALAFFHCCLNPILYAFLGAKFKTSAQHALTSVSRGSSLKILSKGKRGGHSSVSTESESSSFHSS

Compound | inhibition of 12G5 mAb binding to CXCR4 (in words) [1] | antiviral activity (in words) [2] | reduction of 12G5 mAb binding to the cells [1] | inhibition of mAb 12G5 or SDF-1α binding to CXCR4, % of the NeoR6 activity [1] | inhibition of NeoR6-FITC uptake, less affinity than NeoR6 [5] | Kd [6] | IC50 [6] | Kd [7] | IC50 [7] | also measured
NC[C@@H]1O[C@H](O[C@H]2[C@@H](O)[C@H](O[C@@H]3[C@@H](O)[C@H](N)C[C@H](N)[C@H]3O[C@H]3O[C@H](CO)[C@@H](O)[C@H](O)[C@H]3N)O[C@@H]2CO)[C@H](N)[C@@H](O)[C@@H]1O [paromomycin, reference compound] | did not inhibit | did not reveal antiviral activity | – | – | – | – | – | – | – | –
NC[C@@H]1O[C@H](O[C@H]2[C@@H](O)[C@H](O[C@@H]3[C@@H](O)[C@H](N)C[C@H](N)[C@H]3O[C@H]3O[C@H](CN)[C@@H](O)[C@H](O)[C@H]3N)O[C@@H]2CO)[C@H](N)[C@@H](O)[C@@H]1O [neomycin, neomycin B] | did not inhibit | did not reveal antiviral activity | – | – | – | – | – | – | – | Kd [3]: 1180 nM; times weaker than NeoR1 binding to RRE IIB ([4]; comparator NeoR1): 6; times weaker than NeoR2 binding to RRE IIB ([4]; comparator NeoR2): 7; times weaker than NeoR6 binding to RRE IIB ([4]; comparator NeoR6): ~550
CC(=O)O.N=C(N)NCCCC(N)C(=O)NCC1OC(OC2C(CO)OC(OC3C(O)C(N)CC(N)C3OC3OC(CNC(=O)C(N)CCCNC(=N)N)C(O)C(O)C3N)C2O)C(N)C(O)C1O (centres unmarked) [NeoR2, diargininamido-neomycin B conjugate] | – | – | 48% | 55% | about 50% | 112 ± 3.7 nM | 208 ± 21.1 nM | > 500 nM | > 500 nM | –
CC(=O)O.N=C(N)NCCCC(N)C(=O)NCC1OC(OC2C(NC(=O)C(N)CCCNC(=N)N)CC(NC(=O)C(N)CCCNC(=N)N)C(O)C2O)C(NC(=O)C(N)CCCNC(=N)N)C(O)C1O (centres unmarked) [NeamR4, Neamine tetra-arginine conjugate] | – | – | 60% | 70% | about 50% | 55 nM and 54.7 nM | 119 ± 13.5 nM | 30 nM and 30.1 nM | 82.8 ± 7.7 nM | cellular uptake of FITC-labeled AAC by PM1 cells [8]: uptaken by PM1 cells; MFI of FITC-AAC uptake ([9]; 62.5 nM SDF-1α): 56; inhibition of cell uptake by SDF-1α ([9]; 125 nM SDF-1α, PM1 cells): about 50%; MFI of FITC-AAC uptake ([9]; 125 nM SDF-1α): 52; MFI of FITC-AAC uptake ([9]; 250 nM SDF-1α): 50; MFI of FITC-AAC uptake ([9]; without SDF-1α): 96; effect of RANTES on uptake of FITC derivative [10]: did not affect uptake; folds less active / times weaker than NeoR6, TAR binding ([7]; ratio of KD to that of NeoR6): 6; competition with RhdRev for TAR RNA binding (in words) ([7]; up to 20 μM of AAC): efficiently competed
CC(=O)O.N=C(N)NCCCC(N)C(=O)NCC1OC(OC2C(N)CC(N)C(O)C2O)C(N)C(O)C1O (centres unmarked) [NeamR1, argininamido-neamine conjugate] | – | – | 5% | – | – | 233 ± 4.5 nM | 342 ± 29.5 nM | > 500 nM | > 500 nM | competition with NeoR6-FITC uptake (in words) ([5]; 100 fold excess of non-labeled AAC): did not compete
Nc1ccn([C@H]2CC[C@@H](CO)O2)c(=O)n1 [ddC, Dideoxycytosine, reference compound] | – | – | – | – | – | – | – | – | – | EC50 [11]: 300 ± 100 nM
